Test results as given in ChEMBL document CHEMBL1123697, “Heteroatom-activated beta-lactam antibiotics: considerations of differences in the biological activity of [[3(S)-(acylamino)-2-oxo-1-azetidinyl]oxy]acetic acids (oxamazins) and the corresponding sulfur analogues (thiamazins)” (J Med Chem, 1987).

How the values were obtained:
Type in all cases: ADME
Settings in all cases: buffer
[1] = Half life at pH 10
[2] = Pseudo first order rate constant for the alkaline hydrolysis of beta-lactams (35 degree Celsius) was determined at pH 10
[3] = Pseudo first order rate constant for the alkaline hydrolysis of beta-lactams (35 degree Celsius) was determined at pH 11
[4] = Half life at pH 11

Row | SMILES | half-life [1] [h] | k [2] [h⁻¹] | k [3] [h⁻¹] | half-life [4] [h]
1 | C[C@H]1[C@H](NC(=O)Cc2ccccc2)C(=O)N1SCC(=O)[O-].[K+] | 0.95 | 0.73 |  | 
2 | C[C@@H]1NC(=O)[C@H]1NC(=O)OCc1ccccc1 |  |  | 0.029 | 24
3 | C[C@H]1[C@H](NC(=O)/C(=N\OC(C)(C)C(=O)O)c2csc(N)n2)C(=O)N1S(=O)(=O)O [AZTREONAM] |  | 0.4 |  | 
4 | C[C@H]1[C@H](NC(=O)Cc2ccccc2)C(=O)N1OCC(=O)O | 2.2 | 0.31 |  | 
